Consider two molecules from patent publication US12186426B2, “Solid dosage form” (IX BIOPHARMA LTD, priority 2009, dated 2025).

Structures are written as SMILES. Where “and” joins values, the source holds several entries; their conditions need not be identical. Equal values may be shown once.

Series [1] is classed as physicochemical. As to conditions: pH 6.8.
Series [2] can be described thus: Ketamine wafer safety and tolerability (Likert, Bond and Lader scales) in healthy volunteers. In kind it is in vivo, human. Here is the method: Safety assessments included scheduled adverse event (AE) probes, spontaneous AE reporting, routine laboratory investigations, 12-lead electrocardiograms (ECGs) and vital sign evaluation during a 24 hour period from start of dosing. A full physical examination was performed before the first dosing occasion and 24 hours after the second dosing occasion.
Local tolerability was assessed, by using Likert scales, at pre dose, 5, 10, 15, 30 and 45 minutes and one hour post dose administration. Modified Bond and Lader scales to assess sedation and altered perception, by using the three factors “alertness”, “contentedness” and “calmness”, were performed at pre dose, 30 minutes post dose and at hours 1, 1.5, 2, 2.5, 3, 4, 6, 8, 12, and 24 hours post dose administration.
The Bond and Lader scales comprise a total of 16 100-mm lines anchored at either end by antonyms. Participants marked their current subjective state between the antonyms on the line. Each line was scored as millimetres to the mark from the negative antonym. From the resultant scores, three measures derived by factor analysis were isolated. […]

Series [3] can be described thus: Ketamine wafer pharmacokinetics and absolute bioavailability, crossover study in healthy volunteers. Particulars: for extrapolated portion of the AUC, AUCextr: range over subjects; for time of first quantifiable plasma concentration: all subjects.
[4] abbreviates: gmean of eight volunteers, 10 mg as 30 minute IV infusion.
Setting [5] is: human, plasma, other: sublingual, 25 mg.
Where [6] appears, read: individual subjects, 10 mg as 30 minute IV infusion.
The mark [7] stands for this setting: individual subjects, 25 mg SL wafer.
The mark [8] stands for this setting: median of eight volunteers, 25 mg SL.

Take `Cc1ncc2n1-c1ccc(Cl)cc1C(c1ccccc1F)=NC2` [midazolam powder, midazolam]: the “dissolution rate compared with wafer” value in series [1] is recorded as “considerably slower”.
Turning to `CNC1(c2ccccc2Cl)CCCCC1=O` (racemic) [RS ketamine, ketamine], the “Bond and Lader mood rating scales (alertness, contentedness, calmness)” value in series [2] (10 mg IV and 25 mg SL, 24 hr observation) was “no clear trends for effects”. Further, in series [2] (healthy volunteers), the “ECG, vital signs, haematology, clinical chemistry, urinalysis” value is “no clinically relevant changes or trends for abnormalities”. Moreover, the “extrapolated portion of the AUC, AUCextr” value in series [3] (IV 10 mg) was 3-7%; in series [3] (SL 25 mg) it was 2-9%. For the same molecule, the “time of first quantifiable plasma concentration” value in series [3] (IV dosing 10 mg) and in series [3] (SL dosing 25 mg) was “five” throughout. Besides, the “Cmax,I” value was 128.0 ng/mL in series [3] (setting [4]); 190.2 ng/mL and 124.2 ng/mL and 120.3 ng/mL and 101.8 ng/mL and 83.18 ng/mL and 81.12 ng/mL and 226.6 ng/mL and 163.2 ng/mL in series [3] (individual subjects, 10 mg as 30 minute IV infusion, plasma). Also, the VZ in series [3] (setting [4]) was 237 L; in series [3] (setting [6]), 283 L and 253 L and 300 L and 164 L and 385 L and 375 L and 126 L and 158 L. Also, the MRT (usually the average time that molecules of a dose stay in the body) in series [3] (human, plasma, iv, 10 mg) was determined as 3.9 h; in series [3] (setting [5]), 3.8 h. In addition, in series [3] (human, plasma, iv, 10 mg), the half-life (usually the time needed for the level to fall by half in the phase considered) is 7 h. Moreover, the AUC – broadly, concentration integrated over time – in series [3] (human, plasma, iv, 10 mg, AUCINF__, gmean of eight volunteers, 10 mg as 30 minute IV infusion) came to 255 ng·h/mL; in series [3] (human, plasma, iv, 10 mg, AUCINF__, individual subjects, 10 mg as 30 minute IV infusion) it was 255 ng·h/mL; in series [3] (human, plasma, other: sublingual, 25 mg, AUCINF_, gmean of eight volunteers, 25 mg SL wafer), 185 ng·h/mL; in series [3] (human, plasma, other: sublingual, 25 mg, AUCINF_, individual subjects, 25 mg SL wafer), 184 ng·h/mL. The clearance (in general, the rate of elimination divided by the concentration) in series [3] (human, plasma, iv, 10 mg, CL, gmean of eight volunteers, 10 mg as 30 minute IV infusion) was 654 mL/min; in series [3] (human, plasma, iv, 10 mg, CL, individual subjects, 10 mg as 30 minute IV infusion) it was 655 mL/min; in series [3] (human, plasma, iv, 10 mg, Median CL, IV dosing 10 mg), 628 mL/min. Moreover, the Cmax (as a rule, the peak of the concentration-time curve) in series [3] (human, plasma, iv, 10 mg, Cmax,I, gmean of eight volunteers, 10 mg as 30 minute IV infusion) was determined as 128 ng/mL; in series [3] (human, plasma, other: sublingual, 25 mg, Cmax,S, gmean of eight volunteers, 25 mg SL wafer) it was 71.1 ng/mL. Further, the Tmax – broadly, the time at which the peak concentration occurs – in series [3] (human, plasma, iv, 10 mg, tmax,IV, individual subjects, 10 mg as 30 minute IV infusion) amounted to 0.5 h; in series [3] (human, plasma, iv, 10 mg, tmax,IV, median of eight volunteers, 10 mg as 30 minute IV infusion), 0.5 h; in series [3] (human, plasma, other: sublingual, 25 mg, tmax,SL, median of eight volunteers, 25 mg SL wafer), 0.75 h. The bioavailability (usually the share of a dose that reaches the circulation, judged against a reference dose that is usually intravenous) in series [3] (setting [5]) lay within 23 to 38%. The AUCINF__ in series [3] (setting [6]) was 270.02 ng·h/mL and 289.22 ng·h/mL and 299.44 ng·h/mL and 261.00 ng·h/mL and 167.21 ng·h/mL and 282.73 ng·h/mL and 243.24 ng·h/mL. Besides, the CL in series [3] (setting [6]) was 37.03 L/h and 34.58 L/h and 33.40 L/h and 38.31 L/h and 59.81 L/h and 35.37 L/h and 41.11 L/h. Further, the “t1/2,I” value is 5.0 h and 4.7 h and 6.0 h and 3.4 h and 4.3 h and 2.5 h and 2.7 h in series [3] (setting [6]); 4.5 h in series [3] (median of eight volunteers, 10 mg as 30 minute IV infusion). Moreover, in series [3] (setting [6]), the “tmax,IV” value is 0.6 h and 0.52 h. For the same molecule, the “bioavailability F” value in series [3] (individual subjects, 25 mg SL vs 10 mg IV) is 38% and 29% and 30% and 23% and 28% and 27%; in series [3] (setting [8]), 29 [27, 31] %. The AUCINF_ in series [3] (setting [7]) is 203.47 ng·h/mL and 171.90 ng·h/mL and 211.33 ng·h/mL and 186.14 ng·h/mL and 161.64 ng·h/mL and 202.89 ng·h/mL and 162.52 ng·h/mL. Further, the “t1/2,” value in series [3] (setting [7]) was 3.2 h and 5.5 h and 3.5 h and 2.3 h and 4.6 h and 5.1 h and 2.9 h and 1.8 h; in series [3] (median of eight volunteers, 25 mg SL wafer) it was 3.4 h. The “tmax,SL” value in series [3] (setting [7]) was 1 h and 0.58 h and 0.25 h. Also, the “Cmax,S” value in series [3] (individual subjects, 25 mg SL wafer, plasma) is 78.77 ng/mL and 60.24 ng/mL and 50.02 ng/mL and 76.12 ng/mL and 51.79 ng/mL and 61.17 ng/mL and 88.76 ng/mL and 128.2 ng/mL. Also, the “mean absorption time MAT” value in series [3] (individual subjects, 25 mg SL, MRTSL−MRTIV) was −1.1 hr (2×) and 0.86 hr and −0.56 hr and 0.20 hr and 0.64 hr and 1.1 hr and −0.83 hr; in series [3] (setting [8]), -0.18 h. For the same molecule, the “mean absorption time MAT, Min-Max” value in series [3] (minimum and maximum of eight volunteers, 25 mg SL) was -1.1 to 1.1 h.
